In patent US10227290B2, “Glycosphingolipids for use in modulating immune responses” (The Regents of the University of California, priority 2012, dated 2019):

Legend:
[1] = biological target: T1, Mouse CD1d (mCD1d) tetramer / TCR of NKT cell hybridomas (Mus musculus, UniProt P11609); experiment: Staining of NKT cell hybridomas with sphingolipid-loaded mCD1d tetramers (flow cytometry); type: binding; conditions: mCD1d tetramer loaded with the sphingolipid
T1 construct: purchased NIH Tetramer Core Facility
T1 sequence (P11609 19-297 limits assumed): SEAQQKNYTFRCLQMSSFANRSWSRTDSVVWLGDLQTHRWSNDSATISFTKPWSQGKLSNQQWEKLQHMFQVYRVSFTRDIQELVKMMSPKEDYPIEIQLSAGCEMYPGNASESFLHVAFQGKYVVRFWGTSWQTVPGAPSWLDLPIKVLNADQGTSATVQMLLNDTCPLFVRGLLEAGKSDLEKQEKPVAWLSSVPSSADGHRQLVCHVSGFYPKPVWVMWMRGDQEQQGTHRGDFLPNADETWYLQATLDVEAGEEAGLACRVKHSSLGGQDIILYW
T1 sequence (P01887 21-119 partner): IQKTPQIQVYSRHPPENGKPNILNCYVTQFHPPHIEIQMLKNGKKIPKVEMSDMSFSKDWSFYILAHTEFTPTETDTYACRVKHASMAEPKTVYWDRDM
Procedure: FIGS. 4A-4C illustrate that α-GalCerBf binds CD1d and activates murine NKT cells in vitro. FIG. 4A: NKT cell hybridomas (see Example 4) were stained with anti-CD3 antibodies, and empty mCD1d tetramers or CD1d tetramers were loaded with α-GalCerBf or KRN7000. Flow cytometry plots representative of three independent experiments are shown. FIG. 4B: Hybridomas were cultured with BMDCs (bone marrow-derived dendritic cells) pre-pulsed with LPS or LPS+α-GalCerBf in the presence of control Ig or anti-CD1d blocking antibodies. IL-2 secretion was measured in supernatants 16 hr later. Data are representative of three independent experiments. FIG. 4C: Liver mononuclear cells were cultured with splenocytes plus increasing amounts of α-GalCerBf in the presence or absence of anti-CD1d blocking antibodies. IFN-γ secretion was measured in supernatants on day 5. Data are representative of three independent experiments.
The reagents used in Examples 4 and 5 for the immunology studies were as follows. PBS-57 loaded mCDld tetramers, which were used for mouse experiments, and unloaded mCD1d monomers were obtained from the NIH Tetramer Core Facility. For loading, monomers were incubated with KRN7000 or α-GalCerBf diluted in DMSO at 6 fold molar excess at 37° C. for 3 hrs in the presence of pepstatin, leupeptin, EDTA and TWEEN 20. Samples were concentrated using a 30K microconcentrator. Monomers were tetramerized by incubation with streptavidin-conjugated allophycocyanin (APC) (Molecular Probes, Inc., Eugene, Oreg.) at a 1:1 ratio. Staining was performed at room temperature for 1 hr. […] Viability was determined by staining cells with LIVE/DEAD fixable Aqua stain (Invitrogen Life Technologies, Carlsbad, Calif.) per manufacturer's instructions. […]
Synthetic CD1d tetramers were loaded with each sphingolipid, KRN7000 and α-GalCerBf), and the capability of the sphingolipid/CD1d-tetramer complex (hereafter called ‘tetramer’) to stain three NKT-cell-derived hybridomas was determined (see, e.g., Brossay et al., J. Immunol. […]

[2] = system: Peripheral blood mononuclear cells (PBMCs), CD3+Vα24+ NKT cells; experiment: In vitro expansion of CD3+Vα24+ NKT cells from human PBMCs; type: cell-based; conditions: 13 days; 0.1 μg/ml KRN7000, 1 μg/ml α-GalCerBf, 1 μg/ml ceramideBf
Procedure: FIGS. 6A and 6B illustrate that α-GalCerBf binds human CD1d and activates human NKT cells in vitro. FIG. 6A: PBMCs were cultured for 13 days with 0.1 μg/mlKRN7000, 1 μg/ml α-GalCerBf, or 1 μg/ml ceramideBf. Dot plots show CD3^+Vα24^+NKT cells pre- and post-expansion. The data shown are representative of at least two individual experiments performed with six individual donors. FIG. 6B: Human NKT cells were purified after two rounds of expansion with 1 μg/ml α-GalCerBf and restimulated with 10 μg/ml α-GalCerBf in the presence or absence of control Ig or anti-Cd1d blocking antibodies. IFN-γ secretion was measured in supernatants 40-48 hours later. Data are representative of two independent experiments.
The capability of α-GalCerBf to stimulate freshly isolated NKT cells was determined. A first experiment was performed to determine whether Vα24^+ cells could be expanded in vitro with α-GalCerBf as previously described for KRN7000 (see, e.g., Rogers et al., J. Immunol. Meth. 285:197-214 (2004)). Peripheral blood mononuclear cells (PBMCs) were cultured with 0.1 μg/ml KRN7000, 1 μg/ml α-GalCerBf, or 1 μg/ml ceramideBf for 13 days. The presence of CD3 Vα24^+ cells was then assessed by flow cytometry. At least two individual experiments performed with six individual donors. […] IFN-γ secretion was measured in supernatants 40-48 hours later.

[3] = system: cyclophosphamide (CY) induced diabetes; conditions: NOD mouse model; Sharif et al.; cited from earlier work

MFI (Median Fluorescence Intensity) of tetramer staining ([1]; DN3A4-1.2 (1.2) hybridoma): 2151
MFI (Median Fluorescence Intensity) of tetramer staining ([1]; DN3A4-1.4 (1.4) hybridoma): 683
MFI (Median Fluorescence Intensity) of tetramer staining ([1]; N38-2C12 (2C12) hybridoma): 8932
Structure (SMILES): CCCCCCCCCCCCCCCCCCCCCCCCCC(=O)N[C@@H](CO[C@H]1O[C@H](CO)[C@H](O)[C@H](O)[C@H]1O)[C@H](O)[C@H](O)CCCCCCCCCCCCCC [KRN7000]
Expansion of a population of CD3+Vα24+ cells [2]: showed an expansion
Effect on cyclophosphamide (CY) induced diabetes [3]: prevents
